Measurements as given in patent publication EP0442663A1, “Improvements in chemical compounds” (priority 1990, dated 1991).
“And” between values parts separate entries of the source, which are not always exact repeats. Equal values may be shown once.

Key:
herpes virus = settings: from JP 64-38,022; cited from earlier work
HIV-1 (HTLV-IIIB) = experiment: microbe, parasite or virus in culture; type: cell-based; settings: for ED50: antiviral activity, MT-4 cells challenged with HIV-1 (HTLV-IIIB) at 100 CCID50, 5 days
Description: (§1) The compounds of the invention were tested in a screen by the MTT method (J.Virol. Methods […]: 309-321 [1988]). MT-4 cells (2.5 x 10⁴ / well) were challenged with HIV-1 (HTLV-IIIB) or HIV-2 (LAV-2 ROD) at a concentration of 100 CCID₅₀ and incubated in the presence of various concentrations of the test compounds, which were added immediately after challenge with the virus. After 5 days culture at 37°C in a CO₂ incubator, the number of viable cells was assessed by the MTT (tetrazolium) method. Antiviral activity and cytotoxicity of the compounds are expressed in the table below as ED₅₀ (ug/ml) and CD₅₀ (ug/ml), respectively. The potential therapeutic usefulness was assessed by calculating a Selectivity Index (SI) corresponding to the ratio of CD₅₀ to ED₅₀. A control test was performed using the known anti-HIV treatment AZT, and a comparison compound HPA-23 was also run through the screen as detailed below. In the table below, the compounds screened were […]

[1] = Cytotoxicity by MTT method; type: cell-based; settings: human, MT-4 cells, 5 days, read-out: CD50
Description: as §1

HIV-2 (LAV-2 ROD) = experiment: MTT method anti-HIV screen in MT-4 cells, HIV-2 challenge; type: cell-based; settings: antiviral activity, MT-4 cells challenged with HIV-2 (LAV-2 ROD) at 100 CCID50, 5 days
Description: as §1

MT-4 cells = experiment: Cytotoxicity by MTT method; type: cell-based; settings: 5 days
Description: as §1

HIV = settings: reported in Chemical and Engineering News, December 1986; cited from earlier work
[2] = in vivo; cited from earlier work
[3] = value printed in the HIV-1 line
[4] = value printed in the HIV-2 line
[5] = value printed in the HIV-1 line, 7200 min
[6] = value printed in the HIV-2 line, 7200 min

| Compound | ED50 (HIV-1 (HTLV-IIIB)) [µg/mL] | ED50 (HIV-2 (LAV-2 ROD)) [µg/mL] | CD50 (MT-4 cells; [3]) [µg/mL] | CD50 (MT-4 cells; [4]) [µg/mL] | other results |
| --- | --- | --- | --- | --- | --- |
| K₅BW₁₂O₄₀ |  |  |  |  | activity against herpes virus (herpes virus): have activity against herpes virus |
| Cc1cn([C@H]2C[C@H](N=[N+]=[N-])[C@@H](CO)O2)c(=O)[nH]c1=O [AZT, azidothymidione, reference compound] |  |  |  |  | EC50 (HIV-1 (HTLV-IIIB); Human immunodeficiency virus 1, IIIB, MT4, 120 h, read-out: ED50): < 0.008 µg/mL; SI (HIV-1 (HTLV-IIIB); Selectivity Index, ratio of CD50 to ED50, HIV-1, 7200 min): >125; CC50 at 120 h [1]: > 1 µg/mL |
| K10[P2W18Zn4(H2O)2O68] [B] | 0.71 | 18.03 | 466.3 | 441.9 |  |
| silicotungstate acid, H₄SiW₁₂O₄₀ |  |  |  |  | activity against HIV (HIV): has activity against HIV; toxicity in higher animals [2]: abandoned because of its toxicity in higher animals |
| Na12[P4W14O58] [F] | 4.82 | 13.26 | 655.8 | 682.8 |  |
| K₇PW₁₀Ti₂O₄₀ |  |  |  |  | activity against herpes virus (herpes virus): have activity against herpes virus |
| Reduced form of K₆[P₂W₁₂Mo₆O₆₂] [Example 12] |  |  |  |  | ED50 (HIV-1 (HTLV-IIIB); 7200 min): 4.1 µg/mL and 5.8 µg/mL; ED50 (HIV-2 (LAV-2 ROD); 7200 min): 1.8 µg/mL and 1.4 µg/mL; CD50 (MT-4 cells; [5]): 234.0 µg/mL and 300.0 µg/mL; CD50 (MT-4 cells; [6]): 315.0 µg/mL and 306.0 µg/mL |
| K10[P2W18Co4(H2O)2O68] | 1.47 | 12.26 | 84.8 | 81.6 |  |
| (NH₄)₁₂[H₂P₂W₁₂O₄₈].16H₂O [Example 7] |  |  |  |  | CD50 (MT-4 cells; [5]): >500.0 µg/mL and 304.0 µg/mL; CD50 (MT-4 cells; [6]): 346.0 µg/mL and 286.0 µg/mL |
| K9Li[P2W17O62] [E] | 2.92 | 7.28 | 502.9 | 429.7 |  |
| Na7[PrW10O35] [C] | 1.86 | 2.70 | 761.8 | 221.7 |  |
| K12[H2P2W12O48] [A] | 0.089 | 0.153 | 721.0 | 675.9 |  |
| (NH₄)₁₇H[NaSb₉W₂₁O₈₆] [HPA 23, reference compound] | 2.8 | >4 | 7.4 | 2.4 |  |
